Assay results reported in US20220002272A1, “BISARYL LACTAMS AS NRF2 ACTIVATORS” (GLAXOSMITHKLINE INTELLECTUAL PROPERTY DEVELOPMENT LIMITED, priority 2016, published 2022).
pEC50: −log10 of the molar value. Structures can show the parent of a compound that is named as a salt.

test system: NQ01 specific enzyme activity in BEAS-2B cells (marker for Nrf2 activation); test: BEAS-2B NQ01 MTT Assay; format: cell-based; settings: Homo sapiens; NQ01 specific activity induction in BEAS-2B cells, 48 hours incubation with compound
Description: NAD(P)H:quinone oxidoreductase 1 (NQ01), also called DT diaphorase, is a homodimeric FAD-containing enzyme that catalyzes obligatory NAD(P)H-dependent two-electron reductions of quinones and protects cells against the toxic and neoplastic effects of free radicals and reactive oxygen species arising from one-electron reductions. The transcription of NQ01 is finely regulated by Nrf2, and thus NQ01 activity is a good marker for Nrf2 activation. On day one, frozen BEAS-2B cells (ATCC) are thawed in a water bath, counted, and re-suspended at a concentration of 250,000 cells/mL. Fifty microliters of cells are plated in 384 well black clear-bottomed plates. Plates are incubated at 37° C., 5% CO2 overnight. On day two, plates are centrifuged and 50 nL of compound or controls are added to the cells. Plates are then incubated at 37° C., 5% CO2 for 48 hours. On day four, medium is aspirated from the plate and crude cell lysates are made by adding 13 uL of 1× Cell Signaling Technologies lysis buffer with 1 Complete, Mini, EDTA-free Protease Inhibitor Tablet (Roche) for each 10 mL of lysis buffer. After lysis plates are incubated for 20 minutes at room temperature. Two microliters of lysate are removed for use in Cell Titer Glo assay (Promega) and MTT cocktail is prepared (Prochaska et. al. 1998) for measurement of NQ01 activity. Fifty microliters of MTT cocktail is added to each well, plate is centrifuged, and analyzed on an Envision plate reader (Perkin Elmer) using Absorbance 570 nm label for 30 minutes. Product formation is measured kinetically and the pEC50 of NQ01 specific activity induction is calculated by plotting the change in absorbance (Delta OD/min) versus the log of compound concentration followed by 3-parameter fitting.
pEC50 is the negative log of the EC50.
EC50s<1 nM (+++++), EC50s 10 nM-1 nM (++++), EC50s 10-100 nM (+++), EC50s 100 nM-1 μM (++), EC50s 1-10 μM (+).

With `CCn1cc(CCC(c2ccc(Cl)c(CN3CC(=O)N(C)CC(C)(C)C3)c2)C(C)(C)C(=O)O)nn1` (stereo not shown) [Example 16, 3-(4-Chloro-3-((4,6,6-trimethyl-3-oxo-1,4-diazepan-1-yl)methyl)phenyl)-5-(1-ethyl-1H-1,2,3-triazol-4-yl)-2,2-dimethylpentanoic acid] as the compound, how does the pEC50 read?
Its pEC50 is greater than 9.00.

How did the pEC50 turn out when `Cc1c([C@H](c2ccc3c(c2)[C@H](N2CC(=O)N(C)CC(C)(C)C2)CC3)C(C)(C)C(=O)O)ccc2c1nnn2C` (relative stereo) [Example 10, rel-3S-(1,4-Dimethyl-1H-benzo[d][1,2,3]triazol-5-yl)-2,2-dimethyl-3-(rel-(R)-3-(4,6,6-trimethyl-3-oxo-1,4-diazepan-1-yl)-2,3-dihydro-1H-inden-5-yl)propanoic acid] was run?
Its pEC50 is greater than 9.00.

How did the pEC50 turn out when `Cc1ccc(C(c2ccc3c(nnn3C)c2C)C(C)(C)C(=O)O)cc1CN1CC(=O)N(C)CC(C)(C)C1` (stereo not shown) [Example 7, 3-(1,4-Dimethyl-1H-benzo[d][1,2,3]triazol-5-yl)-2,2-dimethyl-3-(4-methyl-3-((4,6,6-trimethyl-3-oxo-1,4-diazepan-1-yl)methyl)phenyl)propanoic acid] was run?
The pEC50 was 8.00 to 9.00.

`CCn1cc(COC(c2ccc(C)c(CN3CC(=O)N(C)CC(C)(C)C3)c2)C(C)(C)C(=O)O)nn1` (stereo not shown) [Example 14, 3-((1-Ethyl-1H-1,2,3-triazol-4-yl)methoxy)-2,2-dimethyl-3-(4-methyl-3-((4,6,6-trimethyl-3-oxo-1,4-diazepan-1-yl)methyl)phenyl)propanoic acid] was tested. Which pEC50 did it give?
The pEC50 was 6.00 to 7.00.

With `Cc1c(C(c2ccc3c(c2)C(N2CC(=O)N(C)CC(C)(C)C2)CC3)C(C)(C)C(=O)O)ccc2c1nnn2C` (single isomer, unassigned) [Example 12] as the compound, how does the pEC50 read?
The pEC50 was 7.00 to 8.00.

`CCN1CC(C)(C)CN(Cc2cc([C@@H](c3ccc4c(nnn4C)c3C)C(C)(C)C(=O)O)ccc2C)CC1=O` [Example 4] was tested. Which pEC50 did it give?
Its pEC50 is 8.00 to 9.00.

How did the pEC50 turn out when `Cc1ccc(C(c2ccc3c(nnn3C)c2C)C(C)(C)C(=O)O)cc1CN1CC(=O)N(CC2CC2)CC(C)(C)C1` (stereo not shown) [Example 9, 3-(3-((4-(Cyclopropylmethyl)-6,6-dimethyl-3-oxo-1,4-diazepan-1-yl)methyl)-4-methylphenyl)-3-(1,4-dimethyl-1H-benzo[d][1,2,3]triazol-5-yl)-2,2-dimethylpropanoic acid] was run?
Its pEC50 is 7.00 to 8.00.

With `Cc1c([C@H](c2ccc3c(c2)[C@@H](N2CC(=O)N(C)CC(C)(C)C2)CC3)C(C)(C)C(=O)O)ccc2c1nnn2C` (relative stereo) [Example 11, rel-3S-(1,4-Dimethyl-1H-benzo[d][1,2,3]triazol-5-yl)-2,2-dimethyl-3-(rel-(S)-3-(4,6,6-trimethyl-3-oxo-1,4-diazepan-1-yl)-2,3-dihydro-1H-inden-5-yl)propanoic acid] as the compound, how does the pEC50 read?
Its pEC50 is 8.00 to 9.00.

`Cc1ccc(C(c2ccc3c(nnn3C)c2C)C(C)(C)C(=O)O)cc1CN1CC(=O)N(C2CCC2)CC(C)(C)C1` (stereo not shown) [Example 8, 3-(3-((4-Cyclobutyl-6,6-dimethyl-3-oxo-1,4-diazepan-1-yl)methyl)-4-methylphenyl)-3-(1,4-dimethyl-1H-benzo[d][1,2,3]triazol-5-yl)-2,2-dimethylpropanoic acid] was tested. Which pEC50 did it give?
The pEC50 was 8.00 to 9.00.

How did the pEC50 turn out when `CCCN1CC(C)(C)CN(Cc2cc(C(CCc3cn(CC)nn3)C(C)(C)C(=O)O)ccc2Cl)CC1=O` (stereo not shown) [Example 15, 3-(4-Chloro-3-((6,6-dimethyl-3-oxo-4-propyl-1,4-diazepan-1-yl)methyl)phenyl)-5-(1-ethyl-1H-1,2,3-triazol-4-yl)-2,2-dimethylpentanoic acid] was run?
Its pEC50 is 7.00 to 8.00.

With `Cc1c(C(c2ccc3c(c2)C(N2CC(=O)N(C)CC(C)(C)C2)CC3)C(C)(C)C(=O)O)ccc2c1nnn2C` (stereo not shown) [Example 13, 3-(1,4-Dimethyl-1H-benzo[d][1,2,3]triazol-5-yl)-2,2-dimethyl-3-(3-(4,6,6-trimethyl-3-oxo-1,4-diazepan-1-yl)-2,3-dihydro-1H-inden-5-yl)propanoic acid] as the compound, how does the pEC50 read?
Its pEC50 is 6.00 to 7.00.

`Cc1ccc([C@@H](c2ccc3c(nnn3C)c2C)C(C)(C)C(=O)O)cc1CN1CC(=O)N(C)CC(C)(C)C1` [Example 6, (S)-3-(1,4-Dimethyl-1H-benzo[d][1,2,3]triazol-5-yl)-2,2-dimethyl-3-(4-methyl-3-((4,6,6-trimethyl-3-oxo-1,4-diazepan-1-yl)methyl)phenyl)propanoic acid, 0.3Formic acid salt] was tested. Which pEC50 did it give?
The pEC50 was 8.00 to 9.00.

How did the pEC50 turn out when `Cc1ccc([C@@H](c2ccc3c(nnn3C)c2C)C(C)(C)C(=O)O)cc1CN1CCCN(C)C(=O)C1` [Example 3, (S)-3-(1,4-Dimethyl-1H-benzo[d][1,2,3]triazol-5-yl)-2,2-dimethyl-3-(4-methyl-3-((4-methyl-3-oxo-1,4-diazepan-1-yl)methyl)phenyl)propanoic acid] was run?
The pEC50 was 6.00 to 7.00.

`Cc1ccc([C@@H](c2ccc3c(nnn3C)c2C)C(C)(C)C(=O)O)cc1CN1CC(=O)N(C2CC2)CC(C)(C)C1` [Example 1] was tested. Which pEC50 did it give?
The pEC50 was 8.00 to 9.00.

`CCCN1CC(C)(C)CN(Cc2cc([C@@H](c3ccc4c(nnn4C)c3C)C(C)(C)C(=O)O)ccc2C)CC1=O` [Example 2] was tested. Which pEC50 did it give?
The pEC50 was 8.00 to 9.00.

With `CCC1CN(Cc2cc(C(c3ccc4c(nnn4C)c3C)C(C)(C)C(=O)O)ccc2C)CC(=O)N(C)C1` (stereo not shown) [Example 5, 3-(1,4-Dimethyl-1H-benzo[d][1,2,3]triazol-5-yl)-3-(3-((6-ethyl-4-methyl-3-oxo-1,4-diazepan-1-yl)methyl)-4-methylphenyl)-2,2-dimethylpropanoic acid] as the compound, how does the pEC50 read?
Its pEC50 is 8.00 to 9.00.
